Experimental findings from US11787762B2, “Tetralin and tetrahydroquinoline compounds as inhibitors of HIF-2alpha” (ARCUS BIOSCIENCES, INC., priority 2020, dated 2023) are described below.

Experiment [1] concerns the target T1, Histidine tagged HIF-2α protein containing PAS-B domain (240-350) (Homo sapiens, UniProt Q99814).
T1 construct: HIF-2α protein containing PAS-B domain (240-350); made in house
Nature of the experiment: HIF-2α Scintillation Proximity Assay (SPA) binding assay. Particulars: Table 2; 50 nM HIF-2α protein, 25 nM 3H-tracer. A digest of the protocol:
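His-tagged HIF-2α PAS-B (240-350), 50 nM final, preincubated with compound 1 h at room temperature in 25 mM Tris-HCl pH 7.4, 150 mM NaCl, 0.15% BSA, 0.001% Tween 20, 2% DMSO. Copper-chelate SPA beads (3 ug/well, 45 min) and 25 nM tritiated N-(3-chlorophenyl)-4-nitro-2,1,3-benzoxadiazol-5-amine tracer followed; IC50 from four-parameter fits.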
(In general: In a scintillation proximity assay essentially only radioactivity close to the scintillant gives light.)

The target in experiment [2] is T2, HIF-2α (Homo sapiens, UniProt Q99814).
T2 construct: host or cells: 786-O cells stably transduced with Cignal Lenti HIF Luc Reporter (only the reporter was introduced, not HIF-2α)
T2 sequence (Q99814 whole entry): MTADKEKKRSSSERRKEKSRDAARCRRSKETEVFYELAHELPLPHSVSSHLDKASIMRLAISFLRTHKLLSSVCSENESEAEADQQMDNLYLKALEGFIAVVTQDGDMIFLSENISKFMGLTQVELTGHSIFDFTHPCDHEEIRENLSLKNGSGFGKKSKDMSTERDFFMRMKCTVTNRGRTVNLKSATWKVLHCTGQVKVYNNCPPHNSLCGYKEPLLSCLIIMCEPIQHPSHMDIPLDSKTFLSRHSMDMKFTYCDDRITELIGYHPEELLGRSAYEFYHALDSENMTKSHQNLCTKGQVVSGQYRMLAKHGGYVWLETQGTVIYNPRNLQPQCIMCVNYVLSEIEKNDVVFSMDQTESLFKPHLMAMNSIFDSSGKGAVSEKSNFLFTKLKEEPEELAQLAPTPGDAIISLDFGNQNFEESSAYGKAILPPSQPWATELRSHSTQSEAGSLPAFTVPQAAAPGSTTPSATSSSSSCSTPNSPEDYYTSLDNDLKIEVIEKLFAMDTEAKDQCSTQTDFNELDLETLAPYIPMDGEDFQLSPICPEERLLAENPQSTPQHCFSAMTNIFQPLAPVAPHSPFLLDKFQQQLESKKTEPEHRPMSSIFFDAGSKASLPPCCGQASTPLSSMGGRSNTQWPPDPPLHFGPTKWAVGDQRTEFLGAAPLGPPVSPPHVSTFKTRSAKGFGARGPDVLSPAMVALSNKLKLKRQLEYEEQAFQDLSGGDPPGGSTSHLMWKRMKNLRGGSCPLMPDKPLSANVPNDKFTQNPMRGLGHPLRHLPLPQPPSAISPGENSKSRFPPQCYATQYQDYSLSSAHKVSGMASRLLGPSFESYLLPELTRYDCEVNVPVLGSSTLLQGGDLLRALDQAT
Nature of the experiment: HIF-2α luciferase reporter assay in HIF-Luc-786-O cells. The experiment is classed as cell-based. Conditions: Table 2, 20 hours incubation. A digest of the protocol: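 786-O cells stably carrying a HIF-responsive luciferase reporter, 20,000/well in OptiMem with 1% DMSO, exposed to compound up to 50 uM for 20 h at 37 °C. ONE-Glo luminescence normalised to DMSO and no-cell controls; IC50 by four-parameter fit.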

Where only a bound is given, the exact number is not on record here.

T1 sequence (Q99814 240-350): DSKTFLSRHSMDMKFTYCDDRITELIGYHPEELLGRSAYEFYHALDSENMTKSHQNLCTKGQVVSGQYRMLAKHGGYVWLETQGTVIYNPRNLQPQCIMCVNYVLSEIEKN

As a reminder, the IC50 is the concentration needed to halve the response being measured. Lower therefore signals inhibition by little substance. For `COC1CCN(c2ccc(C(C)(F)F)c(F)c2C#N)c2c(C#N)cc(F)cc21` (centres unmarked) [Example 132, 1-[2-Cyano-4-(1,1-difluoroethyl)-3-fluorophenyl]-6-fluoro-4-methoxy-3,4-dihydro-2H-quinoline-8-carbonitrile], the IC50 in experiment [1] and in experiment [2] was less than 100 nM in each case.
With `CC(F)(F)c1ccc(N2CCC(F)(F)c3cc(F)cc(C#N)c32)c(C#N)c1F` [Example 133, 1-[2-cyano-4-(1,1-difluoroethyl)-3-fluorophenyl]-4,4,6-trifluoro-1,2,3,4-tetrahydro-8-quinolinecarbonitrile], the IC50 in experiment [1] and in experiment [2] was less than 100 nM throughout.
Take `CS(=O)(=O)c1ccc([C@H]2CC[C@H](F)c3cc(F)cc(C#N)c32)c2c1[C@H](O)[C@H](F)C2` [Example 134, (5S,8R)-3,5-Difluoro-8-[(1S,2R)-2-fluoro-1-hydroxy-7-methylsulfonyl-2,3-dihydro-1H-inden-4-yl]-5,6,7,8-tetrahydronaphthalene-1-carbonitrile]: the IC50 in experiment [1] and in experiment [2] was less than 100 nM throughout.
Take `CS(=O)(=O)c1ccc([C@H]2CCC(F)(F)c3cc(F)cc(C#N)c32)c2c1[C@H](O)[C@H](F)C2` [Example 135, (8R)-3,5,5-Trifluoro-8-[(1S,2R)-2-fluoro-1-hydroxy-7-methylsulfonyl-2,3-dihydro-1H-inden-4-yl]-7,8-dihydro-6H-naphthalene-1-carbonitrile]: the half-inhibitory concentration (IC50) in experiment [1] and in experiment [2] was less than 100 nM each time.
In the case of `N#Cc1cc(F)cc2c1[C@@H](c1ccc(S(=O)(=O)C(F)(F)F)c3c1C[C@@H](F)[C@H]3O)CC[C@@H]2F` [Example 136, (5S,8R)-3,5-Difluoro-8-[(1S,2R)-2-fluoro-1-hydroxy-7-(trifluoromethylsulfonyl)-2,3-dihydro-1H-inden-4-yl]-5,6,7,8-tetrahydronaphthalene-1-carbonitrile], the IC50 in experiment [1] and in experiment [2] was less than 100 nM throughout.
For the molecule `N#Cc1cc(F)cc2c1[C@@H](c1ccc(C(F)(F)F)c(Cl)c1C#N)CC[C@@H]2F` [Example 137, (5S,8R)-8-[3-Chloro-2-cyano-4-(trifluoromethyl)phenyl]-3,5-difluoro-5,6,7,8-tetrahydronaphthalene-1-carbonitrile], the IC50 in experiment [1] and in experiment [2] was less than 100 nM in each case.
As for `N#Cc1cc(F)cc2c1[C@@H](c1ccc(C(F)(F)F)c(Cl)c1C#N)CC[C@H]2F` [Example 138, (5R,8R)-8-[3-chloro-2-cyano-4-(trifluoromethyl)phenyl]-3,5-difluoro-5,6,7,8-tetrahydronaphthalene-1-carbonitrile], the concentration for half-maximal inhibition (IC50) is more than 1000 nM in experiment [1] and 100 to 1000 nM in experiment [2].
`Cc1c([C@H]2CC[C@H](F)c3cc(F)cc(C#N)c32)cnc(C(C)(F)F)c1F` [Example 139, (5S,8S)-8-[6-(1,1-difluoroethyl)-5-fluoro-4-methylpyridin-3-yl]-3,5-difluoro-5,6,7,8-tetrahydronaphthalene-1-carbonitrile]: the IC50 in experiment [1] and in experiment [2] was less than 100 nM each time.
In the case of `CS(=O)(=O)c1ccc([C@H]2CCCc3cc(F)cc(C#N)c32)c2c1[C@H](O)[C@H](F)[C@@H]2F` [Example 140, (8R)-8-[(1S,2S,3R)-2,3-difluoro-1-hydroxy-7-methylsulfonyl-2,3-dihydro-1H-inden-4-yl]-3-fluoro-5,6,7,8-tetrahydronaphthalene-1-carbonitrile], the IC50 in experiment [1] and in experiment [2] was less than 100 nM throughout.
As for `N#Cc1cc(F)cc2c1[C@@H](c1ccc(C(F)(F)F)c3c1C(=O)OC3)CC[C@@H]2F` [Example 142, (5S,8R)-3,5-Difluoro-8-[3-oxo-7-(trifluoromethyl)-1,3-dihydro-2-benzofuran-4-yl]-5,6,7,8-tetrahydronaphthalene-1-carbonitrile], the half-inhibitory concentration (IC50) in experiment [1] and in experiment [2] was less than 100 nM each time.
